# Reference: patent publication US4272437A, “Antibacterial agents, and 4-thio azetidinone intermediates” (priority 1979, dated 1981)
# Where two headings read alike, the source gives them in different places.
# Legend:
# [1] = tested on: Str. pneumoniae A-9585; assay: MIC, tube dilution, Streptococcus pneumoniae A9585; format: cell-based; conditions: Streptococcus pneumoniae, A9585, Str. pneumoniae A9585; overnight 37° C., Nutrient Broth; read-out: Minimum Inhibitory Concentration (M.I.C.)
# Source text: (§1) Representative compounds of the present invention were subjected to in vitro antibiotic screening against a variety of microorganisms.
# [2] = tested on: Str. pyogenes A-9604; assay: MIC, tube dilution, Streptococcus pyogenes A9604; format: cell-based; conditions: Streptococcus pyogenes, A9604, Str. pyogenes A9604; overnight 37° C., Nutrient Broth; read-out: Minimum Inhibitory Concentration (M.I.C.)
# Source text: as §1
# [3] = tested on: Staph. aureus A-9537; assay: MIC, tube dilution, Staphylococcus aureus A9537; format: cell-based; conditions: Staphylococcus aureus, A9537, Staph. aureus A9537; overnight 37° C., Nutrient Broth; read-out: Minimum Inhibitory Concentration (M.I.C.)
# Source text: as §1
# [4] = tested on: Staph. aureus (Meth-Res) A-15097; assay: MIC, tube dilution, Staphylococcus aureus A15097 (Meth-Res); format: cell-based; conditions: Staphylococcus aureus, Staph. aureus A15097 (Meth-Res); overnight 37° C.; read-out: Minimum Inhibitory Concentration (M.I.C.)
# Source text: as §1
# [5] = tested on: Str. faecalis A-20688; assay: MIC, tube dilution, Streptococcus faecalis A20688; format: cell-based; conditions: Enterococcus faecalis, A20688, Str. faecalis A20688; overnight 37° C.; read-out: Minimum Inhibitory Concentration (M.I.C.)
# Source text: as §1
# [6] = tested on: E. coli A-15119; assay: MIC, tube dilution, Escherichia coli A15119; format: cell-based; conditions: Escherichia coli, A15119, E. coli A15119; overnight 37° C.; read-out: Minimum Inhibitory Concentration (M.I.C.)
# Source text: as §1
# [7] = tested on: E. coli A-20341-1; assay: MIC, tube dilution, Escherichia coli A20341-1; format: cell-based; conditions: Escherichia coli, A203411; E. coli A20341-1; overnight 37° C.; read-out: Minimum Inhibitory Concentration (M.I.C.)
# Source text: as §1
# [8] = tested on: K. pneumoniae A-15130; assay: MIC, tube dilution, Klebsiella pneumoniae A15130; format: cell-based; conditions: Klebsiella pneumoniae, A15130, K. pneumoniae A15130; overnight 37° C.; read-out: Minimum Inhibitory Concentration (M.I.C.)
# Source text: as §1
# [9] = tested on: Klebsiella species A20468; assay: MIC, tube dilution, Klebsiella species A20468; format: cell-based; conditions: Klebsiella species (K. pneumoniae) A20468; overnight 37° C.; read-out: Minimum Inhibitory Concentration (M.I.C.)
# Source text: as §1
# [10] = tested on: Pr. mirabilis A-9900; assay: MIC, tube dilution, Proteus mirabilis A9900; format: cell-based; conditions: Proteus mirabilis, A9900, Proteus mirabilis A9900; overnight 37° C.; read-out: Minimum Inhibitory Concentration (M.I.C.)
# Source text: as §1
# [11] = tested on: Pr. morganii A-15153; assay: MIC, tube dilution, Proteus morganii A15153; format: cell-based; conditions: Morganella morganii, A15153, Proteus morganii A15153; overnight 37° C.; read-out: Minimum Inhibitory Concentration (M.I.C.)
# Source text: as §1
# [12] = tested on: Ser. marcescens A-20019; assay: MIC, tube dilution, Serratia marcescens A20019; format: cell-based; conditions: Serratia marcescens, A20019, Serratia marcescens A20019; overnight 37° C.; read-out: Minimum Inhibitory Concentration (M.I.C.)
# Source text: as §1
# [13] = tested on: Ent. cloacae A-9659; assay: MIC, tube dilution, Enterobacter cloacae A9659; format: cell-based; conditions: Enterobacter cloacae, A9659, Enterobacter cloacae A9659; overnight 37° C.; read-out: Minimum Inhibitory Concentration (M.I.C.)
# Source text: as §1
# [14] = tested on: Ent. cloacae A-9656; assay: MIC, tube dilution, Enterobacter cloacae A9656; format: cell-based; conditions: Enterobacter cloacae, A9656, Enterobacter cloacae A9656; overnight 37° C.; read-out: Minimum Inhibitory Concentration (M.I.C.)
# Source text: as §1
# [15] = tested on: Ps. aeruginosa A-9843A; assay: MIC, tube dilution, Pseudomonas aeruginosa A9843A; format: cell-based; conditions: Pseudomonas aeruginosa, A9843A, read-out: Minimum Inhibitory Concentration (M.I.C.), Pseudomonas aeruginosa A9843A; overnight 37° C.
# Source text: as §1
# [16] = tested on: Ps. aeruginosa A-21213; assay: MIC, tube dilution, Pseudomonas aeruginosa A21213; format: cell-based; conditions: Pseudomonas aeruginosa A21213; overnight 37° C.; read-out: Minimum Inhibitory Concentration (M.I.C.)
# Source text: as §1
# [17] = tested on: Proteus rettgeri A21203; assay: MIC, tube dilution, Proteus rettgeri A21203; format: cell-based; conditions: Providencia rettgeri, A21203, Proteus rettgeri A21203; overnight 37° C.; read-out: Minimum Inhibitory Concentration (M.I.C.)
# Source text: as §1
# [18] = tested on: E. coli A15119; assay: In vivo protection of mice, lethal infection with E. coli A15119; conditions: Escherichia coli, IM, 2 treatments, 7.4 × 10^5 organisms, read-out: PD50
# Method: (§2) Representative compounds of the present invention were also tested in vivo in mice and their PD50 (dose of compound in mg/kg required to protect 50% of the treated mice against an otherwise lethal infection of a micro-organism) values determined with respect to the test organisms shown below.
# [19] = tested on: S. aureus A9606; assay: In vivo protection of mice, lethal infection with S. aureus A9606; conditions: Staphylococcus aureus, IM, 2 treatments, 8 × 10^8 organisms, read-out: PD50
# Method: as §2
# [20] = tested on: K. pneumoniae A15130; assay: In vivo protection of mice, lethal infection with K. pneumoniae A15130; conditions: Klebsiella pneumoniae, IM, 2 treatments, 1.2 × 10^3 organisms, read-out: PD50
# Method: as §2
# [21] = tested on: S. pneumoniae A9585; assay: In vivo protection of mice, lethal infection with S. pneumoniae A9585; conditions: Streptococcus pneumoniae, A9585, im, 2 treatments, read-out: PD50
# Method: as §2
# [22] = tested on: Proteus mirabilis A9900; assay: In vivo protection of mice, lethal infection with Proteus mirabilis A9900; conditions: IM, 2 treatments, 1.3 × 10^7 organisms, read-out: PD50
# Method: as §2
# [23] = tested on: S. pyogenes A9604; assay: In vivo protection of mice, lethal infection with S. pyogenes A9604; conditions: Streptococcus pyogenes, A9604, im, 2 treatments, read-out: PD50
# Method: as §2
# [24] = Mouse blood levels after intramuscular administration; format: in vivo; conditions: average of 6 mice, read-out: Mouse blood level
# Method: Mouse blood levels after intramuscular administration of representative compounds of the present invention were determined and are reported in the table below.
smiles,measurement,setting,value
"NCCCCC1=C(C(=O)O)N2C(=O)CC2S1 (centres unmarked) [Example 73, 2-(4'-Aminobutyl)-penem-3-carboxylic Acid]",MIC,[1],0.13 µg/mL
same,MIC,[2],0.25 µg/mL
same,MIC,[3],0.25 µg/mL
same,MIC,[4],16 µg/mL
same,MIC,[5],32 µg/mL
same,MIC,[6],8 µg/mL
same,MIC,[7],125 µg/mL
same,MIC,[8],32 µg/mL
same,MIC,[9],> 125 µg/mL
same,MIC,[10],8 µg/mL
same,MIC,[11],32 µg/mL
same,MIC,[12],16 µg/mL
same,MIC,[13],63 µg/mL
same,MIC,[14],32 µg/mL
same,MIC,[15],> 125 µg/mL
same,MIC,[16],> 125 µg/mL
same,MIC,[17],16 µg/mL
same,ED50,[18],25 mg/kg
same,ED50,[19],6.3 mg/kg
same,ED50,[20],> 100 mg/kg
same,ED50,[21]; 3 × 10^4 organisms,1.2 mg/kg
same,ED50,[21]; 3.4 × 10^4 organisms,1.56 mg/kg
same,ED50,[22],> 100 mg/kg
same,ED50,[23]; 1.2 × 10^3 organisms,0.89 mg/kg
same,ED50,[23]; 8 × 10^3 organisms,0.51 mg/kg
same,concentration at 10 min,[24]; 10 minutes after IM 40 mg/kg,37900 ng/mL
same,concentration at 20 min,[24]; 20 minutes after IM 40 mg/kg,30800 ng/mL
same,concentration at 0.5 h,[24]; 30 minutes after IM 40 mg/kg,21200 ng/mL
same,concentration at 0.75 h,[24]; 45 minutes after IM 40 mg/kg,13200 ng/mL
same,concentration at 1 h,[24]; 60 minutes after IM 40 mg/kg,8400 ng/mL
same,concentration at 1.5 h,[24]; 90 minutes after IM 40 mg/kg,3400 ng/mL
same,concentration at 2 h,[24]; 120 minutes after IM 40 mg/kg,< 3000 ng/mL
